Results as given in article PMC8038350, “Nordihydroguaiaretic Acid as a Novel Substrate and Inhibitor of Catechol O-Methyltransferase Modulates 4-Hydroxyestradiol-Induced Cyto- and Genotoxicity in MCF-7 Cells” (Molecules, 2021).

Columns and labels:
[1] = biological target: T1, catechol O-methyl transferase (COMT) (Homo sapiens, UniProt P21964); assay: 4-MeOE2 formation in MCF-7 cells/lysate; […] decrease at […]; assay type: cell-based; conditions: MCF7
T1 construct: endogenous COMT in MCF-7 whole cell lysate
T1 sequence (P21964 1-271): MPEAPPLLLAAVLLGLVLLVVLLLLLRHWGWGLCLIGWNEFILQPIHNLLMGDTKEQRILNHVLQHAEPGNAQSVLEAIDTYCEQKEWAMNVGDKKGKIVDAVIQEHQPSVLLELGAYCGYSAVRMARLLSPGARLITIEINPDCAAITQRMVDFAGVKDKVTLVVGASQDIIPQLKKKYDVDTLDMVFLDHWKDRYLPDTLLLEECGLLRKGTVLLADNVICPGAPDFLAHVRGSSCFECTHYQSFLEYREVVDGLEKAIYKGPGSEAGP

[2] = biological target: T2, catechol O-methyl transferase (COMT) (Homo sapiens, UniProt P21964); assay: inhibition of recombinant COMT O-methylation of 4-OHE2 by HPLC-DAD (IC50 […]); also a substrate (Km […]); assay type: biochemical
T2 construct: recombinant human soluble COMT, hexahistidine-tagged
T2 sequence (P21964 51-271 limits assumed): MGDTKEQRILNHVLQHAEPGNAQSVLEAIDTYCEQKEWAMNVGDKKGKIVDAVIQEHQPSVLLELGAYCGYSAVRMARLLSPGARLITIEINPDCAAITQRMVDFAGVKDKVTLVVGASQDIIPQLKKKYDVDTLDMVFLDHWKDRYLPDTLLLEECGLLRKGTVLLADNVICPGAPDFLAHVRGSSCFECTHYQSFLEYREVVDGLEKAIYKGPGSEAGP

inhibition at 10 µM [1] [%] | Ki [2] [µM] | SMILES
88 | – | O=C(c1cc(O)c(O)c([N+](=O)[O-])c1)c1ccccc1F [Ro 41-0960]
– | 15.7 | C[C@H](Cc1ccc(O)c(O)c1)[C@H](C)Cc1ccc(O)c(O)c1 [compound 1, 4-[4-(3,4-dihydroxyphenyl)-2,3-dimethylbutyl] benzene-1,2-diol]
